{"source": "patent US20130011493A1", "about": "“PLANT DISEASE CONTROLLING COMPOSITION AND METHOD FOR CONTROLLING PLANT DISEASE” (SUMITOMO CHEMICAL COMPANY, LIMITED, priority 2010, published 2013)", "tested_on": "gray mold fungus (Botrytis cinerea)", "experiment": "cucumber leaf disk preventive test against gray mold fungus", "assay_type": "in vivo", "conditions": "15° C., four days", "description": "To a SUS beaker are added 30 parts of the present compound (racemate), 5 parts of Soprophor FLK (polyoxyethylene tristyrylphenyl ether phosphate, produced by Rhodia Nicca Ltd.), 65 parts of ion-exchange water and 150 parts of glass beads (1.0 mm diameter). The mixture is subjected to grinding at a velocity of 1000 rpm with cooling to 10° C., and thereafter the glass beads are separated, so as to obtain a flowable formulation comprising the present compound (racemate).\nTrue leaf of cucumber is punched out with cork borer to 13 mm in diameter to prepare a leaf disk. In 24 well microwell plate that is dispensed with 1 ml 0.8% water agar, the leaf disk is placed such that the upper side of the leaf is in an upward direction. […]\nAfter confirming that the testing medical solution is dried, conidium of gray mold fungus (Botrytis cinerea) is suspended into potato dextrose broth (DIFCO) in a density of about 10^5 conidium/mL and is then subjected to a spray inoculation. After leaving to stand the leaf disk in a growth chamber set up at 15° C. for four days, an onset area on the leaf is measured and then calculated an onset area rate (hereinafter, referred to as an onset area rate of treated group). […]\nA preventive value is calculated from the above onset area rate of treated group and the onset area rate of non-treated group by the following equation: […]"}
{"substance": "copper hydrochloride", "values": [{"measurement": "preventive value (%)", "setting": "copper hydrochloride alone 0.5 ppm", "value": 10, "unit": "%"}, {"measurement": "preventive value (%)", "setting": "copper hydrochloride alone 5.0 ppm", "value": 15, "unit": "%"}]}
